Reference: patent US20230372569A1 (priority 2020, published 2023)

Assays:
[1] = acetic acid value given as TWA; cited from earlier work
[2] = system: Clostridium difficile ATCC43539; experiment: Room decontamination test, inoculated dirty petri dishes (5% horse serum), two hours; format: cell-based; details: 5% w/w peracetic acid solution, 66 m^3 room
Procedure: A room of volume 66 m^3 (6 m×4.2 m (floor area)×2.6 m (height)) was used as a test room. The room was closed in the usual way, that a domestic, clinic or hospital room would be closed off by closing windows, doors and external vents and turning off any air-conditioning. However, the room was not hermetically sealed and a small amount of airflow was permissible. The temperature of the test room was ambient room temperature (between 20° C. and 25° C.).
A peracetic acid vapour/mist generator (nebulizer) was positioned along the smaller wall, at a height of about 1.21 m.
The peracetic acid vapour/mist generator utilised a commercially available 5% w/w peracetic acid solution. Peracetic acid is sold as an equilibrium mixture of hydrogen peroxide, acetic acid and water. 5% w/w Peracetic acid solution typically comprises 20-30% w/w hydrogen peroxide, 6-10% w/w acetic acid 4.5-5.4% w/w peracetic acid and the balance being water. In many embodiments of the present invention, the 5% w/w peracetic acid solution used comprised 24% w/w hydrogen peroxide, 7.5% w/w acetic acid 5% w/w peracetic acid and the balance being water.
The peracetic acid vapour/mist generator was also accompanied by a UV light that was located in the same housing. […] That is a known germicidal wavelength. The UV light shone upon all the exposed surfaces in the room. The UV lamp was 18 watts. The bulb used synthetic quartz to prevent escape of 185 nm ozone-forming radiation.
The UV-C light and peracetic acid vapour/mist generator could be operated independently or simultaneously, allowing for a direct comparison of the individual decontaminating agents with each other and with the combination.
Immediately before commencing sterilization, petri dishes containing inoculum were placed at three discrete locations within the room—one close to the UV/peracetic acid device (e.g. 80 cm from the device), one in the middle of the room and the other at the opposite end of the room. The dishes were also placed at differing heights. The petridishes were “dirty” and contained 5% horse serum. […] The number of microorganisms was counted. […]

Candida albicans = experiment: Deactivation kinetics (Weibull model) with PAA, with and without UVC; format: cell-based
Description: (§1) In most cases, especially for the PAA+UVC combination, they are nonlinear in coordinates log10[CFU]:-t. Formally it means that it was not a classical first-order reaction. The first-order model assumes that the cells and spores in a population have the same resistance and that the relationship between the decline in the number of survivors over the treatment time is linear. The model can be written as log10(N/N0)=−kt, where N0 is the initial number of cells (CFU/ml), N is the number of survivors after an exposure time t (CFU/ml), k is the rate parameter, and t is the treatment time (min). The D value, a typical index of inactivation kinetics, is the decimal reduction time in minutes (time required to kill 90% of the organisms).
(§2) The Weibull model assumes that the survival curve is a cumulative distribution of lethal effects. The cumulative form of the Weibull distribution is given by log10(N/N0)=[…], where b and n are the scale and shape parameters, respectively. When the shape parameter n is greater than or less than 1, the shape of the survival curve will present a shoulder or tailing, respectively. When n=1, the cumulative form of the Weibull distribution reduces to the first-order rate equation. For the Weibull model, the parameter td, which is analogous to the traditional D value, can be determined. td is the time required for d log reductions of the number of microorganisms and was calculated by the parameters b and n as shown in the equation
(§3) where d is the desired log reduction, b=k and 2.303 is coefficient due to the shift from base e logarithms to base 10 ones.

Salmonella enterica = experiment: as above; format: cell-based
Description: as §1, §2, §3

Staphylococcus aureus = experiment: as above; format: cell-based
Description: as §1, §2, §3

Pseudomonas aeruginosa = experiment: as above; format: cell-based
Description: as §1, §2, §3

Structure (SMILES) | vapour safety level [1] [ppm] | Log reduction, Location 1 ([2]; Location 1 (close to device)) | Log reduction, Location 2 ([2]; Location 2 (middle of room)) | Log reduction, Location 3 ([2]; Location 3 (opposite end of room)) | D (decimal reduction time) (Candida albicans) [min] | k (Weibull deactivation constant) (Candida albicans) [h⁻¹] | n (Weibull shape parameter) (Candida albicans) | D (decimal reduction time) (Salmonella enterica) [min] | k (Weibull deactivation constant) (Salmonella enterica) [h⁻¹] | n (Weibull shape parameter) (Salmonella enterica) | D (decimal reduction time) (Staphylococcus aureus) [min] | k (Weibull deactivation constant) (Staphylococcus aureus) [h⁻¹] | n (Weibull shape parameter) (Staphylococcus aureus) | D (decimal reduction time) (Pseudomonas aeruginosa) [min] | k (Weibull deactivation constant) (Pseudomonas aeruginosa) [h⁻¹] | n (Weibull shape parameter) (Pseudomonas aeruginosa)
CC(=O)O [acetic acid] | 10 | – | – | – | – | – | – | – | – | – | – | – | – | – | – | –
CC(=O)OO [Peracetic Acid only, Peracetic acid] | 0.17 | Log 0.71 log | log 0.97 | log 1.19 | 37 | 0.45 | 1.25 | 70 | 0.2 | 1.24 | 223 | 0.055 | 1.13 | 168 | 0.052 | 1.5
